Experiments:
[1] = system: GABAAR in cerebellar astrocytes (UT co-expressed); experiment: Whole-cell patch-clamp of isoguvacine (Iso)-evoked depolarization/chloride current in cerebellar astrocytes co-cultured with granule neurons; type: cell-based, rat; details: Iso 10^−4 M; n = 78
Experimental: (§1) Primary Cell Culture of astrocytes and astrocyte-neurone co-culture
(§2) Primary cultures of astrocytes were prepared as previously described. Briefly, cerebellum from 7-day-old (P7) Wistar rats were collected in DMEM/Ham-F12 (2∶1, v/v) culture medium supplemented with 2 mM glutamine, 1% insulin, 5 mM HEPES, 0.4% D(+)-glucose and 1% of the antibiotic-antimycotic solution. The tissues were disaggregated mechanically with a syringue equipped with a 1-mm gauge needle, and filtered through a 100-µm pore size mesh filter (Falcon, Becton Dickinson, Grenoble, France). Dissociated cells were resuspended in culture medium supplemented with 10% heat-inactivated FBS and seeded in 150-cm^2 culture flasks (Falcon) at a density of 20×10^6 cells/flask. Cells were incubated at 37°C in a humidified atmosphere (5% CO2) and the medium was changed twice a week. When cultures were confluent, the flasks were gently shaken on an orbital shaker at […] for 2 h. Dislodged cells were discarded and a second step of purification was performed at […] for 14–16 h. Remaining adhesive cells were collected by trypsination, centrifuged (800 g, 10 min) and plated in 150-cm^2 flasks. Suspended astrocytes were harvested and seeded in 24-well poly-L-lysine-coated plates. The purity of the cultures was previously assessed by counting the percentage of astrocytes immunostained with GFAP antibodies. The enriched cultures contained >99% astrocytes.
(§3) For astrocyte-neuron co-culture, granule cell cultures were prepared from cerebella of P7 Wistar rats as described previously. Isolated cells were plated on 14-mm culture dishes coated with poly-L-lysine (5 mM) at a density of 1.5×10^6 cells/dish and incubated at 37°C in a humidified atmosphere (5% CO2) for 1 to 10 days before use. Culture medium consisted of DMEM/Ham's F12 (75%/25%) supplemented with 10% FBS, 2 mM glutamine, 5 µg/ml insulin, 25 mM KCl and 1% of antibiotic-antimycotic solution. Co-cultures are obtained by seeding granule cells (1.5×10^6 cells/ml) on cerebellar astrocytes plated in 24-well plates after 12 hours. Co-cultures are maintained in the specific medium for neuron and incubated at 37°C in an humidified atmosphere (5% CO2) for several days.
(§4) The conventional whole-cell configuration of the patch-clamp technique was used to study the GABA-gated currents in astrocytes and granule neurons, UT stably transfected CHO, CHO-UT, and CHO transiently transfected with diverse variants of UT and GABAAR subunits. After 24-h transfection, cell culture coverslips were placed in a small chamber (1.5 ml) on a stage of a right microscope DMLFSA (Leica, Heidelberg, Germany) and superfused continuously with the following bath solution containing (in mM): NaCl, 150; KCl, 2.5; HEPES, 5; CaCl2, 2; MgCl2, 1; glucose, 10 (pH 7.4 adjusted with NaOH). The patch pipettes were fabricated from 1.5 mm (outer diameter) soft glass tubes on a two-step vertical pipette puller (List-Medical, L/M-3P-A, Darmstadt, Germany). […] ATP and GTP were added to the internal solution used to fill electrode just before recording. All recordings were obtained at RT with cells voltage-clamped at −70 mV. The GABAA receptor agonist isoguvacine was prepared in the extracellular solution and was applied to cells by pneumatic pressure ejection. To prevent desenzitization, isoguvacine was more often ejected during 5 s at 2-min intervals. ATP, GTP, or guanosine 5′-O-(2-thiodiphosphate) (GDPβS) were administered through the patch pipette solution. We investigated the effect of competitive inhibition of GDP-GTP exchange by including GDPβS in the pipette solution (in addition to the normal amount of GTP). For GDPβS and the KIC, immediately following patch rupture, GABA current recordings were performed and the experiment was commenced after an equilibration period of 15 min. […]

[2] = biological target: T1, GABAAR in cerebellar astrocytes (UT co-expressed) (Rattus norvegicus, UniProt P49684); experiment: as above; type: cell-based
T1 construct: Astrocytes, recognized by strong GFAP staining show UT immunoreactivity; endogenous in cells; host or cells: primary rat (P7 Wistar) cerebellar astrocytes co-cultured with cerebellar granule neurons
T1 sequence (P49684 1-386): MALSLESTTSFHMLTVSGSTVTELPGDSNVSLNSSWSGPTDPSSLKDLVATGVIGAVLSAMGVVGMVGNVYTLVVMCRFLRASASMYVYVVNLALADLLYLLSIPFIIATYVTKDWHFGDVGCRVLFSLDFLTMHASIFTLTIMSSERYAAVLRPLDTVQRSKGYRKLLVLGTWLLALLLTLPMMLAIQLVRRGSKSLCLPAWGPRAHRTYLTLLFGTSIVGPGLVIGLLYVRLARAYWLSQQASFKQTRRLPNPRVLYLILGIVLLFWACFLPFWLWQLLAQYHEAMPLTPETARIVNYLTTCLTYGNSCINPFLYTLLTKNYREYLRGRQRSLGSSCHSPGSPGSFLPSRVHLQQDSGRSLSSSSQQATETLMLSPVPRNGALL
Experimental: as §1, §2, §3, §4

[3] = system: cultured rat cortical astrocytes; design: method as in PMID 16942596, PMID 20192922; details: ref [41], [42]; cited from earlier work

| Compound | Cells responding to isoguvacine, astrocytes cultured with granule neurons [1] [%] | Direct current activated ([2]; UII 10^−8 M, in some cells) | Recovery of the GABAAR current inhibition during washout ([2]; astrocytes) | Effect on cell proliferation [3] |
| --- | --- | --- | --- | --- |
| O=C(O)C1=CCNCC1 [Iso, isoguvacine] | 48 | – | – | – |
| UII: Urotensin II, species not stated at that place (rUII in astrocytes, hUII in CHO and human cells) | – | activated a small inward current | hardly recovered during washout | stimulates cell proliferation |
